Where two headings read alike, the source gives them in different places.
Key:
[1] = tested on: Vero cells; assay: effect of LPA on the action of spisulosine 285 in Vero cells (Example D); format: cell-based; settings: spisulosine alone, 24 hours
From the text: LPA is known to increase the level of stress fibers in cells by activation of the Rho protein. The effect of LPA on cells treated with spisulosine 285, and untreated cells was examined. […]

[2] = tested on: 786-0; assay: expanded in vitro screen, 786-0; format: cell-based; settings: Homo sapiens; 786-0, Renal, solid
Description: (§1) An expanded in vitro screen was performed of spisulosine 285 against a series of different cell lines.

[3] = tested on: Hs 746T; assay: expanded in vitro screen, Hs 746T; format: cell-based; settings: Homo sapiens, Hs746T, Stomach, solid
Description: as §1

[4] = tested on: MX-1; assay: expanded in vitro screen, MX-1; format: cell-based; settings: Homo sapiens, MX1; MX-1, Mammary, solid
Description: as §1

[5] = tested on: SW684; assay: expanded in vitro screen, SW684; format: cell-based; settings: Homo sapiens; SW684, Fibrosarcoma
Description: as §1

[6] = tested on: Vero cells; assay: Vero cell morphology (Example A); format: cell-based; settings: 0.5 mM, 4 hours
Description: Vero cells were grown in Dulbecco's modified Eagle medium supplemented with 10% foetal bovine serum. Spisulosine or LPA were added to these cultures to a concentration of […] and 50–10 mM respectively, from 4 to 24 hours. Cells were counted with the […] haemocytometer procedure using a solution of 0.4% Trypan blue in Hanks buffered Saline (Celis and Celis, “General Procedures for Tissue Culture in Cell Biology, a Laboratory Handbook” Academic Press Inc, Vol 1, pp. 5–17.)
Vero cells were incubated with spisulosine 285 (0.5 mM) for 4 hours. […] Panel c represents a higher magnification of the culture to which spisulosine was added.

[7] = tested on: SK-OV-3; assay: expanded in vitro screen, SK-OV-3; format: cell-based; settings: Homo sapiens; SK-OV-3, Ovary, solid
Description: as §1

[8] = tested on: K562; assay: expanded in vitro screen, K562; format: cell-based; settings: Homo sapiens; K562, Leukemia
Description: as §1

[9] = tested on: HT-29; assay: expanded in vitro screen, HT-29; format: cell-based; settings: Homo sapiens; HT-29, Colon, solid
Description: as §1

[10] = tested on: P-388; assay: in vitro tumor cell line activity, P-388; format: cell-based
[11] = tested on: RAMOS; assay: expanded in vitro screen, RAMOS; format: cell-based; settings: Homo sapiens, Burkitts
Description: as §1

[12] = tested on: HT-29; assay: in vitro tumor cell line activity, HT-29; format: cell-based
[13] = tested on: human prostate cancer (PC-3); assay: xenograft model of human prostate cancer; format: in vivo; settings: for % T/C / Comments: intraperitoneal
Description: Spisulosine 285 was tested in in vivo studies against xenograft models of human prostate cancer (PC-3) and human renal cancer (MRI-H-121). These models use subcutaneously implanted solid human tumors that grow and increase in volume over time. The mean volume of tumor growth in control animals provides the basis for comparison. […] A level of activity that is less than 40% T/C is considered statistically significant. The doses of spisulosine used were given at the maximum tolerated, non lethal dose (MTD), ½ MTD and ¼ MTD. Delivery of the drug was by the intraperitoneal route.

[14] = tested on: ARH77; assay: expanded in vitro screen, ARH77; format: cell-based; settings: Homo sapiens, ARH-77; ARH77, Leukemia
Description: as §1

[15] = tested on: L1210 murine lymphocytic leukemia cells; assay: L1210 cytotoxicity assay (inhibition of growth); format: cell-based
Description: The morphological effect was usually measured 30–35 h after the start of the assay and again about 24 h later, while the cytotoxicity was determined when the number of cells in the controls reached approximately 8000, usually in 3 days after the assay was begun. It should be noted that the pointed cells were live cells and that they were counted as such for the cytotoxicity reading. […] All morphologically-changed cells were counted in the pointed cell percentage.
Cytotoxicity assays against L1210 murine lymphocytic leukemia cells were performed by dissolving the samples in methanol and/or hexane were applied to the dry assay wells and the solvent was allowed to evaporate. Cells (1000) were added in minimum essential medium (MEM, 1 ml) and incubated 37° C. Inhibition of growth was recorded as the estimated percentage of living cells in sample wells versus that in control wells.

[16] = tested on: Vero cells; assay: microfilament and microtubule staining in Vero cells (Example B); format: cell-based; settings: 0.5 mM, 4 hours
Description: In order to identify the organization of the microfilament and microtubule organization in cells treated with spisulosine 285, cells were stained with phalloidin to detect actin polymers, and an antitubulin antibody to detect tubulin.
Vero cells were incubated in the presence (panel b, d) or absence (a, c) of 0.5 mM spisulosine 285 for 4 hours. Cells grown in coverslips were fixed with methanol at −20° C. (for tubulin antibody) or with 4% paraformaldehyde in phosphate buffered saline PBS (w/v) for phalloidin incubation. In the second case the cells were washed with 0.2% Triton X100 in PBS. The coverslips were washed with PBS and incubated for 1 hour at room temperature with the tubulin antibody (diluted 1/1000 in PBS) or with phalloidin (1 mg/ml). After washing with PBS the coverslips incubated with the tubulin antibody were overlaid with fluorescein or Texas red-labelled goat antimouse antibodies (diluted 1:50 in PBS). The coverslips were mounted with Mowiol and stored in the dark at 4° C. until observation.

[17] = tested on: CCRF-SB; assay: expanded in vitro screen, CCRF-SB; format: cell-based; settings: Homo sapiens, Leukemia
Description: as §1

[18] = tested on: HL60; assay: expanded in vitro screen, HL60; format: cell-based; settings: Homo sapiens, HL-60; HL60, Leukemia
Description: as §1

[19] = tested on: FADU; assay: expanded in vitro screen, FADU; format: cell-based; settings: Homo sapiens, Pharnynx, solid
Description: as §1

[20] = tested on: P3HR1; assay: expanded in vitro screen, P3HR1; format: cell-based; settings: Homo sapiens, P3HR-1; P3HR1, Burkitts
Description: as §1

[21] = tested on: PANC-1; assay: expanded in vitro screen, PANC-1; format: cell-based; settings: Homo sapiens; PANC-1, Pancreas, solid
Description: as §1

[22] = tested on: CV-1; assay: expanded in vitro screen, CV-1 normal cell line; format: cell-based, monkey; settings: Primates, CV-1, Kidney fibroblasts
Description: as §1

CCCCCCCCCCCCCCC[C@@H](O)[C@H](C)N [Spisulosine 285, (2S,3R)-2-Amino-3-octadecanol]
cell morphology [1]: appearance of rounded cells | IC50 [2]: 0.00275 nM | IC50 [3]: 0.00789 nM | IC50 [4]: 0.0389 nM | IC50 [5]: 1.05 nM | cell shape [6]: altered from polygonal (untreated cells, panel a) to a fusiform shape | IC50 [7]: 0.014 nM | IC50 [8]: 0.0157 nM | IC50 [9]: 0.00256 nM | active against tumor cell line in vitro (concentration) [10]: 0.01 mg/mL | IC50 [11]: 0.0482 nM | active against tumor cell line in vitro (concentration) [12]: 0.05 mg/mL | effect on tumour size (in words) ([13]; at higher doses): significantly reducing the tumour size | % T/C ([13]; total dose 2.499 mg/kg, day 15): 223% | % T/C ([13]; total dose 5.010 mg/kg, day 11): −1% | Comments ([13]; total dose 5.010 mg/kg, day 11): stasis (complete remission) | % T/C ([13]; total dose 9.990 mg/kg, day 11): −21% | Comments ([13]; total dose 9.990 mg/kg, day 11): stasis (complete remission) | IC50 [14]: 0.0136 nM | cytotoxicity at 0.01 µg/mL ([15]; Mus musculus, L1210, 0.01 μg/ml): 45% | cytotoxicity at […] ([15]; Mus musculus, L1210, 0.025 μg/ml): 90% | cytotoxicity at 0.05 µg/mL ([15]; Mus musculus, L1210, 0.05 μg/ml): 96% | cytotoxicity at 0.1 µg/mL ([15]; Mus musculus, L1210, 0.1 μg/ml): 99% | inhibition at 0.1 µg/mL ([15]; Mus musculus, L1210, 0.1 μg/ml, read-out: % Inhibitiion): 63% | cytotoxicity at […] ([15]; Mus musculus, L1210, 0.25 μg/ml): 99% | inhibition at […] ([15]; Mus musculus, L1210, 0.25 μg/ml, read-out: % Inhibitiion): 96% | cytotoxicity at 0.5 µg/mL ([15]; Mus musculus, L1210, 0.5 μg/ml): 100% | inhibition at 0.5 µg/mL ([15]; Mus musculus, L1210, 0.5 μg/ml, read-out: % Inhibitiion): 99% | inhibition at 1 µg/mL ([15]; Mus musculus, L1210, 1 μg/ml, read-out: % Inhibitiion): 100% | inhibition at […] ([15]; Mus musculus, L1210, 2.5 μg/ml, read-out: % Inhibitiion): 100% | inhibition at 5 µg/mL ([15]; Mus musculus, L1210, 5 μg/ml, read-out: % Inhibitiion): 100% | L1210 cytotoxicity (in words) ([15]; listed as 1): showed both cytotoxicity and morphological alteration | actin (phalloidin stain) [16]: dramatic decrease in actin | microtubule network (tubulin antibody) [16]: remains in a polymerised form | IC50 [17]: 1.05 nM | IC50 [18]: 0.0085 nM | IC50 [19]: 0.00499 nM | IC50 [20]: 0.0673 nM | IC50 [21]: 0.00171 nM | IC50 [22]: 0.0276 nM

Source: patent US7109244B2, “Compositions and methods comprising long-chain, straight-chain 2-amino-3-hydroxyalkanes” (priority 1997, dated 2006)
